Assay results reported in patent US10166279B2, “Vaccine” (Bergen Teknologioverføring AS, priority 2013, dated 2019).

Assays:
[1] = system: anti-STh mAb ST:G8; test: Competitive ELISA with anti-STh antibodies (polyclonal, mAb ST:G8); format: binding; conditions: polyclonal and monoclonal (ST:G8) anti-STh antibodies
Protocol: Competitive STh ELISA was performed as previously described (PMID: 6520401; Lockwood and Robertson, J Immunol Methods. 1984 Dec. 31; 75(2):295-307) with minor modifications. A U-shaped microtiter plate (Linbro, Fisher Scientific, Göteborg, Sweden) was coated with STh-ovalbumin conjugate diluted in ELISA buffer (NaCl 128 mM, KCl 2.68 mM, KH2PO4 1.47 mM, Na2HPO4 8.10 mM; pH 7.0-7.2). The plate was covered with plate sealer and incubated overnight at 37° C. Contents of the wells were discarded by inversion. Additional protein binding sites were blocked by incubating with ovalbumin 1% (w/v) (Sigma-Aldrich) diluted in ELISA buffer. After incubation for 1 h at 37° C., wells were emptied and washed three times with wash buffer (ELISA buffer containing ovalbumin 0.05% (w/v) and Tween-20 0.05% (v/v)). 75 μL of samples containing STh and 75 μL of diluted antisera (Protein-A purified rabbit anti-STa kindly supplied by John D. Clements; Department of Microbiology and Immunology, Tulane University, New Orleans, USA) were added. Both dilutions were done in ELISA buffer containing ovalbumin 0.05% (w/v). Appropriate dilutions and concentrations of reagents were determined by checkerboard titrations. The plate was incubated for 2 h at 37° C., in a rotary incubator shaker (Infors HT, Bottmingen/Basel Switzerland) at 180 rpm. Wells were emptied and washed three times with wash buffer. 100 μL of anti-Rabbit IgG Alkaline Phosphatase Conjugate developed in goat (Sigma-Aldrich) diluted 1:400 in ELISA buffer with ovalbumin 0.05% (w/v) were add and incubated with not shaking for 1 h at 37° C. Wells were emptied and washed three times with wash buffer followed by addition of 100 μL of 4-Nitrophenyl phosphate disodium salt hexahydrate at 1 mg/mL in diethanolamine buffer (diethanolamine 9.7% (v/v), MgCl2×6H2O 0.49 mM; pH 9.8). After incubation for 30 min, the reaction was stopped with 50 μL 2N NaOH (VWR international) in each well. The absorbance was read in an automatic plate reader at 405 nm (FLUOstar OPTIMA; BMG Labtech, Germany). All samples were measured in triplicate.
(§1) The anti-STh mAb ST:G8 was kindly supplied by S. Visweswariah [Garrett & Visweswariah; PMID: 8950201]. The anti-STp mAbs clone 29, clone 30, and clone 31 were obtained from Fitzgerald Industries International.
ELISA-plates (Nunc Amino Immobilizer) were coated with STh-OvA conjugate in PBS, volume 100 μl per well (synthetic STh conjugated to OvA: For ST:G8 0.04 μl/well, for clone 29 and clone 30 0.01 μl/well). Plates were incubated overnight at 4 C. Subsequently, plates were emptied and blocked with PBS-T 1% OvA for 1h at 20° C. with shaking 180 rpm. […] Developing was stopped by adding 50 μl NaOH 2M to each well, and OD was read at 405 nm with a Fluostar Optima plate reader.

[2] = system: anti-STp mAb clone 30; test: Competitive ELISA with anti-STp antibodies (polyclonal, mAbs clone 29, 30, 31); format: binding; conditions: anti-STp mAb Clone 30, competitive ELISA
Protocol: as §1
ELISA-plates (Nunc Amino Immobilizer) were coated with STh-OvA conjugate in PBS, volume 100 μl per well (synthetic STh conjugated to OvA: For ST:G8 0.04 μl/well, for clone 29 and clone 30 0.01 μl/well). Plates were incubated overnight at 4 C. Subsequently, plates were emptied and blocked with PBS-T 1% OvA for 1h at 20° C. with shaking 180 rpm. After washing (3× with PBS-T) a volume of 60 μl of sample and 60 μl of primary antibody dilution was added to wells. Final dilutions of mAbs were as follows: ST:G8 1:6500, clone 29 1:16000, clone 30 1: 30000. Competitive incubation was performed for 90 minutes at 180 rpm, 20 C. Plates were then washed with 3×200 μl PBS-T and incubated at room-temperature for 1h with secondary antibody diluted in PBS-T 100 μl per well (anti-mouse dilution 1:400 for the ST:G8 ELISA, anti-mouse dilution 1:2000 for clone 29 and clone 30 ELISA). After renewed washing with 3×200 μl PBS-T, plates were developed with 100 μl developing buffer for 15-20 minutes. Developing was stopped by adding 50 μl NaOH 2M to each well, and OD was read at 405 nm with a Fluostar Optima plate reader.
For the clone 31 mAb a slightly different protocol was developed. […]

Substance: uroguanylin (NDDCELCVNVACTGCL) [endogenous peptide ligand of the GC-C receptor]
- binding by anti-STh antibodies [1]: bound
- binding by anti-STp antibodies [2]: does not cross-react
